Measured values taken from article PMC10176470, “Engaging a Non-catalytic Cysteine Residue Drives Potent and Selective Inhibition of Caspase-6” (Journal of the American Chemical Society, 2023).
Read-outs that look alike come from different tables or passages of the source.

Key:
Assay type in all cases: cell-based
[1] = biological target: proteins of HEK293T cells transiently overexpressing caspase-6 (Homo sapiens, UniProt P14625); conditions: exp_ref Probe; protein HSP90B1 (P14625); analysis C6
[2] = biological target: proteins of HEK293T cells transiently overexpressing caspase-6 (Homo sapiens, UniProt P30153); conditions: exp_ref Probe; protein PPP2R1A (P30153); analysis C6
[3] = biological target: proteins of HEK293T cells transiently overexpressing caspase-6 (Homo sapiens, UniProt Q00765); conditions: protein REEP5 (Q00765)
[4] = biological target: proteins of HEK293T cells transiently overexpressing caspase-6 (Homo sapiens, UniProt O43390); conditions: exp_ref Probe; protein HNRNPR (O43390); analysis C6
[5] = biological target: proteins of HEK293T cells transiently overexpressing caspase-6 (Homo sapiens, UniProt P07437); conditions: protein TUBB (P07437)
[6] = biological target: proteins of HEK293T cells transiently overexpressing caspase-6 (Homo sapiens, UniProt Q14152); conditions: exp_ref Probe; protein EIF3A (Q14152); analysis C6
[7] = biological target: proteins of HEK293T cells transiently overexpressing caspase-6 (Homo sapiens, UniProt Q9P2E9); conditions: exp_ref Probe; protein RRBP1 (Q9P2E9); analysis C6
[8] = biological target: proteins of HEK293T cells transiently overexpressing caspase-6 (Homo sapiens, UniProt P63244); conditions: exp_ref Probe; protein GNB2L1 (P63244); analysis C6
[9] = biological target: T1, proteins of HEK293T cells transiently overexpressing caspase-6 (Homo sapiens, UniProt Q07065); conditions: protein CKAP4 (Q07065)
T1 sequence (Q07065 1-602): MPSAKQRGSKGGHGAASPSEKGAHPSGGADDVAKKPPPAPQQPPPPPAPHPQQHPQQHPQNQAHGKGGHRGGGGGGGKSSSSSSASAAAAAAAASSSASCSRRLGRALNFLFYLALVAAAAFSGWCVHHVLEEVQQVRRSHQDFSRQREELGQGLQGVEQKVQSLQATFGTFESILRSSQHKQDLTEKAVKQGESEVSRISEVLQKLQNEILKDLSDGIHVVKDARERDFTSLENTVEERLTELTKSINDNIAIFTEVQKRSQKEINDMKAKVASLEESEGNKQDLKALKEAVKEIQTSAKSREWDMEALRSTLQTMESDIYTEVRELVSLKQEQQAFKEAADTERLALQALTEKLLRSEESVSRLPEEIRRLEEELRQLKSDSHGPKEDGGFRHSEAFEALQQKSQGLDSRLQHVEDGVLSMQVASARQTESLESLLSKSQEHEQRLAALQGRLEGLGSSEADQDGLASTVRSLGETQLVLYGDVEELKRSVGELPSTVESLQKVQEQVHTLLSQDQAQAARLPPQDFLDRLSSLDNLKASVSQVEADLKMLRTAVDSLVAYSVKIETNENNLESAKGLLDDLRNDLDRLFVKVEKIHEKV

[10] = biological target: proteins of HEK293T cells transiently overexpressing caspase-6 (Homo sapiens, UniProt Q9NNW7); conditions: Probe; protein TXNRD2 Q9NNW7
[11] = biological target: proteins of HEK293T cells transiently overexpressing caspase-6 (Homo sapiens, UniProt Q15366); conditions: exp_ref Probe; protein PCBP2 (Q15366); analysis C6
[12] = biological target: proteins of HEK293T cells transiently overexpressing caspase-6 (Homo sapiens, UniProt Q99497); conditions: exp_ref Probe; protein PARK7 (Q99497); analysis C6
[13] = biological target: proteins of HEK293T cells transiently overexpressing caspase-6 (Homo sapiens, UniProt P14174); conditions: Probe; protein MIF P14174
[14] = biological target: T2, proteins of HEK293T cells transiently overexpressing caspase-6 (Homo sapiens, UniProt P30041); conditions: protein PRDX6 (P30041)
T2 sequence (P30041 1-224): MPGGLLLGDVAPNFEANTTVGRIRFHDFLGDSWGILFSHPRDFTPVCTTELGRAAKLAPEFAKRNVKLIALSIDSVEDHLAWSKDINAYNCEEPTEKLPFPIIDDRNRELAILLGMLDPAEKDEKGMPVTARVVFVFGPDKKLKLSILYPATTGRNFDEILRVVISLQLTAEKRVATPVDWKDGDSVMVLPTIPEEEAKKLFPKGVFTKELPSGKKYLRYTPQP

[15] = biological target: proteins of HEK293T cells transiently overexpressing caspase-6 (Homo sapiens, UniProt P38919); conditions: exp_ref Probe; protein EIF4A3 (P38919); analysis C6
proteins of HEK293T cells transiently overexpressing caspase-6 (Homo sapiens, UniProt P38919), sequence (P38919 whole entry): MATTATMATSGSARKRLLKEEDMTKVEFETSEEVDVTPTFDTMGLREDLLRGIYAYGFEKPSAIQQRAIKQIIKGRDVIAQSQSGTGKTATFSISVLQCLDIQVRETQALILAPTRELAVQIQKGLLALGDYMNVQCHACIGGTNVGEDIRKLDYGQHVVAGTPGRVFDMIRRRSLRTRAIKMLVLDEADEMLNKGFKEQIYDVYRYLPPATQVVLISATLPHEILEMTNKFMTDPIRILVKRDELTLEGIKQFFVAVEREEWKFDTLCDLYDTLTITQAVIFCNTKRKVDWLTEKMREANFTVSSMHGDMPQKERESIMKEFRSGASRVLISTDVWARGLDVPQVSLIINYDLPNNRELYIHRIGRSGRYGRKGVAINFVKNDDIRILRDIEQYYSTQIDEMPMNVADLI

proteins of HEK293T cells transiently overexpressing caspase-6 (Homo sapiens, UniProt P07437), sequence (P07437 whole entry): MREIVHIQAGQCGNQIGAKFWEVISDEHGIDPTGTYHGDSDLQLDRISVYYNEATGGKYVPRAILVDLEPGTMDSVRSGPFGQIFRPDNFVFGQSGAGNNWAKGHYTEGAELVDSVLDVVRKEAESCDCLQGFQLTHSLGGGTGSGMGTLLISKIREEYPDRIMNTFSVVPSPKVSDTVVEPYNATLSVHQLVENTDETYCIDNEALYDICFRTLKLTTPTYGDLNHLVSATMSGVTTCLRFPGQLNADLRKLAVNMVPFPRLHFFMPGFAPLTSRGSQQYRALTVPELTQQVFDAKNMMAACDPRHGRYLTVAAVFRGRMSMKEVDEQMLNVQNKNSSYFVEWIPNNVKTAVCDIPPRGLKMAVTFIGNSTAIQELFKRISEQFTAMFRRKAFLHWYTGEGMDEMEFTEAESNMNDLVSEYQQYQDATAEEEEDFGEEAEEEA
proteins of HEK293T cells transiently overexpressing caspase-6 (Homo sapiens, UniProt Q00765), sequence (Q00765 whole entry): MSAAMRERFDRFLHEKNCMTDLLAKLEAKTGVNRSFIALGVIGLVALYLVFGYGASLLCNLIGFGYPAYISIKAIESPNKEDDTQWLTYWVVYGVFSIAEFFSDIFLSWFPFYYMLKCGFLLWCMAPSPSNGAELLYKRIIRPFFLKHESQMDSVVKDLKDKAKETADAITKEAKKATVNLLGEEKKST
proteins of HEK293T cells transiently overexpressing caspase-6 (Homo sapiens, UniProt Q9P2E9), sequence (Q9P2E9 whole entry): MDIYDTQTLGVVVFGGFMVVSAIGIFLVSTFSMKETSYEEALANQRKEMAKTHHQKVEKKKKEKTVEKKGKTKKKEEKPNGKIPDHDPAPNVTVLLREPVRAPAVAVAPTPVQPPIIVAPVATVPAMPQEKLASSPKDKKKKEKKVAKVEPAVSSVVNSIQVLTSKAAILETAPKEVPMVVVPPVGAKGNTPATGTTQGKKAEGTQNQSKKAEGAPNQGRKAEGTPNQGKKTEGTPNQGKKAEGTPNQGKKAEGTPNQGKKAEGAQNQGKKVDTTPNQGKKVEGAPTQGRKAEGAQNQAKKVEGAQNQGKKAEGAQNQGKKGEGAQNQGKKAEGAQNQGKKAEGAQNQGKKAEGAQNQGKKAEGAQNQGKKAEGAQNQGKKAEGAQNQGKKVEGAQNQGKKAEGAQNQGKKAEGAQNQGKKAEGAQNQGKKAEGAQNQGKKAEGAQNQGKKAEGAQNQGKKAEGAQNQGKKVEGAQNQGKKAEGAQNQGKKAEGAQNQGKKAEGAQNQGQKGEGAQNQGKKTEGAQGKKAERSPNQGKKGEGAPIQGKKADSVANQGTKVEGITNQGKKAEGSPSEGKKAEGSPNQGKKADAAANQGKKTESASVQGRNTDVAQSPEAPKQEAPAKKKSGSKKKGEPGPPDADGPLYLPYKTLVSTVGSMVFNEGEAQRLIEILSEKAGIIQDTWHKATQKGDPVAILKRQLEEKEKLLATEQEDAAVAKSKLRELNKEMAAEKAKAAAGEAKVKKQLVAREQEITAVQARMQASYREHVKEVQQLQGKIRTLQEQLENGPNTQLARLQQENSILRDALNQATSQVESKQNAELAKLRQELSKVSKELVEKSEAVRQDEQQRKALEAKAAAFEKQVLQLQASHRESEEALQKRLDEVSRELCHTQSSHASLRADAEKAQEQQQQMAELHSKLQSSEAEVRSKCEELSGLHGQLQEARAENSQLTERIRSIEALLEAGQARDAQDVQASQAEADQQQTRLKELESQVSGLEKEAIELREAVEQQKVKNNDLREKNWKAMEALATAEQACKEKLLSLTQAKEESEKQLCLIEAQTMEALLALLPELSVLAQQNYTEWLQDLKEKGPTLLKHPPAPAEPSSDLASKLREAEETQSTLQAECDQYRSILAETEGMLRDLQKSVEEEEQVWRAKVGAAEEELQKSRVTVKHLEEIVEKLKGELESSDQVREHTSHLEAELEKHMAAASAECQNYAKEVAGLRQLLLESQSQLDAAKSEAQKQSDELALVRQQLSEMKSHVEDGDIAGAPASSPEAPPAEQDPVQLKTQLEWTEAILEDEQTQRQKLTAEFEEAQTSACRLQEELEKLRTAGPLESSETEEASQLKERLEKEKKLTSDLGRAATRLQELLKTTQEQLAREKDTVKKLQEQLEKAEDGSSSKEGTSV
proteins of HEK293T cells transiently overexpressing caspase-6 (Homo sapiens, UniProt O43390), sequence (O43390 whole entry): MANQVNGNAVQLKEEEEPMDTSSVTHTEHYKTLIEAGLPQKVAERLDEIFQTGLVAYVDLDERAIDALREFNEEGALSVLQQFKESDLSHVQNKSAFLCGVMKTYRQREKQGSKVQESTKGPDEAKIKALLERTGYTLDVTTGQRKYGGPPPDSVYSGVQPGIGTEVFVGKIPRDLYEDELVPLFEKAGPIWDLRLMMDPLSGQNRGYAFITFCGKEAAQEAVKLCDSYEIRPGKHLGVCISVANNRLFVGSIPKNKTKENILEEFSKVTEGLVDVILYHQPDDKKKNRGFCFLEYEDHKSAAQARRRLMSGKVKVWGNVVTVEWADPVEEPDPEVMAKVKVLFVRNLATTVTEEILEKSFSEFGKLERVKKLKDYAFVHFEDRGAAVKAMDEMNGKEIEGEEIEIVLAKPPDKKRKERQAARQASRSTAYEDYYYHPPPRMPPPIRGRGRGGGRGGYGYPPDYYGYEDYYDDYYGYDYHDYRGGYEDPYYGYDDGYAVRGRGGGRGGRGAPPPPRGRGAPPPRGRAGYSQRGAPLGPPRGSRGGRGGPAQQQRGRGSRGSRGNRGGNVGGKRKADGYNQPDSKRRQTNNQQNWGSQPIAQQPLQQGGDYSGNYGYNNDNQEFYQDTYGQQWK
proteins of HEK293T cells transiently overexpressing caspase-6 (Homo sapiens, UniProt Q9NNW7), sequence (Q9NNW7 37-524): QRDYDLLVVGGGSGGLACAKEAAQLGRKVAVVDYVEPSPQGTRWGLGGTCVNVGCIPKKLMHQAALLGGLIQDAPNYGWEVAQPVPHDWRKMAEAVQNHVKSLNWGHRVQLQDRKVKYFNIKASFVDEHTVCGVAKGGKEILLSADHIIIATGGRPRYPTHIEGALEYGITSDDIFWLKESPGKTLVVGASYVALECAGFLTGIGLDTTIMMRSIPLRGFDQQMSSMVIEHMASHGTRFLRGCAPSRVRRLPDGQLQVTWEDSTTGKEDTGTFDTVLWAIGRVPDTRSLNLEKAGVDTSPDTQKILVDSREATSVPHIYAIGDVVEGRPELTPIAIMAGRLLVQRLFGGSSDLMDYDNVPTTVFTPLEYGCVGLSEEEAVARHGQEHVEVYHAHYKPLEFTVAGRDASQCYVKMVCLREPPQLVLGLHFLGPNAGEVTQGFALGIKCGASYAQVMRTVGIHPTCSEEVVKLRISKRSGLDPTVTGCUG
proteins of HEK293T cells transiently overexpressing caspase-6 (Homo sapiens, UniProt Q14152), sequence (Q14152 whole entry): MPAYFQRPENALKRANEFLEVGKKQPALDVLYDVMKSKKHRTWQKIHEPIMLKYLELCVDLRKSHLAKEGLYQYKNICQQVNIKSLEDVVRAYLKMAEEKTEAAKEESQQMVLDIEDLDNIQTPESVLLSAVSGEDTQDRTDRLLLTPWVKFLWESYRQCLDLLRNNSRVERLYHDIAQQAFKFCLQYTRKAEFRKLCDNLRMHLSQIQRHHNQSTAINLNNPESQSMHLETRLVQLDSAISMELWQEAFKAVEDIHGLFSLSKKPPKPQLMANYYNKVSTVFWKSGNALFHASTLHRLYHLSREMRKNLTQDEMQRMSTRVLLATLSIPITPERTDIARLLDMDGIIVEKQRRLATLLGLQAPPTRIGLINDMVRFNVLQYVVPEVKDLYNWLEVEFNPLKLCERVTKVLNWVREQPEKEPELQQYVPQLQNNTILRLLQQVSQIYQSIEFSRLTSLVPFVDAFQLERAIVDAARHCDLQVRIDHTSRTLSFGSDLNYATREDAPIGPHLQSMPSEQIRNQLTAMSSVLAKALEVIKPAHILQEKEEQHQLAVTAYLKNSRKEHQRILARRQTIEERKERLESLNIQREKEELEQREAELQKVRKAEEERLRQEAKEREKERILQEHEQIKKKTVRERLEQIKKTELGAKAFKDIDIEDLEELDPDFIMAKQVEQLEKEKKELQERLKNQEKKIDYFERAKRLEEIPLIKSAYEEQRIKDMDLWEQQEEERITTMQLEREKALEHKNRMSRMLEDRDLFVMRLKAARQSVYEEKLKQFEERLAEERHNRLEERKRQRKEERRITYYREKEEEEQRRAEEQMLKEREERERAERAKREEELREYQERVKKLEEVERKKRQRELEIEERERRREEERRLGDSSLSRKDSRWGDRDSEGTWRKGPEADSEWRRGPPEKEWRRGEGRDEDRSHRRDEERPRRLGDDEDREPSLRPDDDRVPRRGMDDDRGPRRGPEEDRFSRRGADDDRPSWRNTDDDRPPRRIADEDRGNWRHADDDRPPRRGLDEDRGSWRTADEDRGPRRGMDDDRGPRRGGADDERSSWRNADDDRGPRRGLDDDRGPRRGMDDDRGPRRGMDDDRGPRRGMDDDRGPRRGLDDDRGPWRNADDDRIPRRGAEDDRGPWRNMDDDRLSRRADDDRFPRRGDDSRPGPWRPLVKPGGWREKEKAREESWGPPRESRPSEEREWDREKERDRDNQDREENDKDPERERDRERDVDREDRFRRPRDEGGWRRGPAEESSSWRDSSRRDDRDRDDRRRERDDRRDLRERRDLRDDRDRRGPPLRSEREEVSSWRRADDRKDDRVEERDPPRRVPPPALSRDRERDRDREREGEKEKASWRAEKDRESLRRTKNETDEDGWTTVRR

C#CCOc1ccc([C@@H]2C[C@@H](C(=O)Nc3ccc(OC(F)(F)F)cc3)CN(S(=O)(=O)C=C)C2)cc1 (relative stereo) [13-t]
enrich.exp.med [1]: 0.4413
enrich.exp.med [2]: 0.444
enrich.exp.med.lin [3]: 12.9915
enrich.exp.med.log2 [3]: 3.6995
enrich.exp.med.lin ([3]; Expt Probe, analysis C6): 12.9915
enrich.exp.med.log2 ([3]; Expt Probe, analysis C6): 3.6995
enrich.exp.med ([3]; exp_ref Probe, analysis C6): 3.6995
enrich.exp.med [4]: 0.1675
enrich.exp.med ([5]; exp_ref Probe, analysis C6): 1.184
enrich.exp.med.lin [5]: 2.273
enrich.exp.med.log2 [5]: 1.184
enrich.exp.med [6]: 0.8938
enrich.exp.med [7]: 0.4694
enrich.exp.med [8]: 0.2005
enrich.exp.med.lin [9]: 4.971
enrich.exp.med.log2 [9]: 2.313
enrich.exp.med.lin ([9]; Expt Probe, analysis C6): 4.971
enrich.exp.med.log2 ([9]; Expt Probe, analysis C6): 2.313
enrich.exp.med ([9]; exp_ref Probe, analysis C6): 2.313
enrich.exp.med [10]: -0.4404
enrich.exp.med [11]: 0.5184
enrich.exp.med [12]: 0.478
enrich.exp.med [13]: -1.906
enrich.exp.med ([14]; exp_ref Probe, analysis C6): 0.7015
enrich.exp.med.lin [14]: 1.626
enrich.exp.med.log2 [14]: 0.7015
enrich.exp.med [15]: 0.7561
